According to ChEMBL document CHEMBL5442168, “ASAP - In vitro liver microsomal stability” (2024):
Values joined by “and” are separate entries in the source; they are usually repeats but may differ in a detail not shown here. Equal entries are not always repeated.

Assays:
[1] = (§1) Human liver microsomal stability of compound in microsomal protein, PBS buffer pH 7.4, NADPH, glucose-6-phosphate and glucose-6-phosphate dehydrogenase media. Aliquotes were taken at 5 time points and after stopping the reaction, supernatants were analyzed using HPLC coupled with a tandem mass spectrometer. The elimination constant, half-life, and intrinsic clearance are determined as results using linear regression analysis. The assay has been performed by Enamine biological services, Bienta Ltd.The protocol is publicly available: dx.doi.org/10.17504/protocols.io.5qpvokdb9l4o/v1; assay type: ADME, microsomes, Microsome; conditions: for Remaining (without cofactor) / Remaining / CLint / T1/2: microsomes; for half-life / microsomal CLint: liver microsomes
[2] = as §1, with “Mouse” for “Human”; assay type: ADME, microsomes, Microsome; conditions: for Remaining / Remaining (without cofactor) / CLint / T1/2: microsomes; for half-life / microsomal CLint: liver microsomes
Wherever Remaining (without cofactor) is given: time not given here.
Wherever Remaining is given: time not given here.

Row | SMILES | Remaining (without cofactor) [1] | Remaining [2] | Remaining (without cofactor) [2] | half-life [1] | microsomal CLint [1] | Remaining [1] | half-life [2] | microsomal CLint [2] | CLint [1] | T1/2 [1] | CLint [2] | T1/2 [2]
1 | CC(C)[C@@H](Nc1ncnc2[nH]c(-c3ccc4nnn(C)c4c3)cc12)c1ccc2c(c1)S(=O)(=O)CCC2 | 93% | 3% | 93% | 2.2 min | 752 µL/min/mg | 0% | 7.6 min | 219 µL/min/mg | – | – | – | –
2 | CC(C)[C@@H](Nc1ncnc2[nH]c(C(=O)N[C@@H]3CCN(C)C3)cc12)c1ccc2c(c1)S(=O)(=O)CCC2 | 106% | 80% | 92% | 83.8 min | 20 µL/min/mg | 70% | 151 min | 11 µL/min/mg | – | – | – | –
3 | CC(C)[C@@H](Nc1ncnc2[nH]c(-c3cncc(S(C)(=O)=O)c3)cc12)c1ccc2c(c1)S(=O)(=O)CCC2 | 104% | 1% | 112% | 2.6 min | 635 µL/min/mg | 1% | 6.1 min | 272 µL/min/mg | – | – | – | –
4 | CC(C)[C@@H](Nc1ncnc2[nH]c(-c3cnn(C)c3C#N)cc12)c1ccc2c(c1)NC(=O)CO2 | 93% and 109% | 6% and 10% | 97% and 102% | 16.6 min | 100 µL/min/mg | 18% and 44% | 9.4 min | 177 µL/min/mg | 52 µL/min/mg | 32.3 min | 147 µL/min/mg | 11.3 min
5 | CC(C)[C@@H](Nc1ncnc2[nH]c(-c3cnn(CC(=O)N(C)C)c3)cc12)c1ccc2c(c1)OCCO2 | 110% and 114% | 39% and 48% | 98% and 114% | 11.8 min | 142 µL/min/mg | 9% and 18% | 28.1 min | 59 µL/min/mg | 108 µL/min/mg | 15.4 min | 45 µL/min/mg | 36.8 min
6 | CC(C)[C@@H](Nc1ncnc2[nH]ccc12)c1ccc2c(c1)S(=O)(=O)CCC2 | 99% | – | 103% and 117% | 44.7 min | 37 µL/min/mg | 53% and 69% | – | – | 21 µL/min/mg | 78.6 min | 138 µL/min/mg and 55 µL/min/mg | 12.1 min and 30.4 min
7 | CC(C)(C)[C@@H](Nc1ncnc2[nH]c(-c3cnn(CC(N)=O)c3)cc12)c1ccc2c(n1)OCCO2 | 96% and 107% | 60% and 59% | 90% and 109% | 46 min | 36 µL/min/mg | 55% and 49% | 53.1 min | 31 µL/min/mg | 42 µL/min/mg | 39.8 min | 30 µL/min/mg | 56.2 min
8 | CNC(=O)c1cccc(-c2cc3c(N[C@H](c4ccc5c(c4)S(=O)(=O)CCC5)C(C)C)ncnc3[nH]2)c1 | 99% | 4% | 106% | 2.2 min | 746 µL/min/mg | 0% | 8.5 min | 197 µL/min/mg | – | – | – | –
9 | CNC(=O)c1cc2c(N[C@@H](c3ccc4c(c3)S(=O)(=O)CCC4)C(C)C)ncnc2[nH]1 | 101% and 94% | 47% and 69% | 100% and 97% | – | – | 25% and 0% | 36.5 min | 46 µL/min/mg | – | – | 23 µL/min/mg | 71.6 min
10 | COc1ccc([C@H](Cc2nnn[nH]2)NC(=O)c2ncnc3[nH]ccc23)cc1 | 84.68% | 115.387% | 100.411% | 1090 min | 2 µL/min/mg | 105.597% | 206 min | 7 µL/min/mg | – | – | – | –
11 | CC(C)[C@@H](Nc1ncnc2[nH]cc(C(N)=O)c12)c1ccc2c(c1)OCCO2 | 110% | 9% | 98% | 11.7 min | 143 µL/min/mg | 9% | 11.7 min | 142 µL/min/mg | – | – | – | –

Now from value to compound:

Row | Remaining (without cofactor) [1] | Remaining [2] | Remaining (without cofactor) [2] | half-life [1] | microsomal CLint [1] | Remaining [1] | half-life [2] | microsomal CLint [2] | CLint [1] | T1/2 [1] | CLint [2] | T1/2 [2] | SMILES
12 | 90% and 111% | 2% and 0% | 101% and 102% | – | – | – | – | – | – | – | – | – | CC(C)[C@@H](Nc1ncnc2[nH]cc(C(=O)NC3CC3)c12)c1ccc2c(c1)S(=O)(=O)CCC2
13 | 86% | 95% | 105% | 280 min | 6 µL/min/mg | 88% | 454 min | 4 µL/min/mg | – | – | – | – | O=C(Nc1cccc2c(C(=O)N[C@@H]3c4ccccc4C[C@@H]3C(=O)O)c[nH]c12)NC1CC1
14 | 102% | 34% | 97% | 15.4 min | 109 µL/min/mg | 17% | 26.3 min | 64 µL/min/mg | – | – | – | – | CCNC(=O)c1cc2c(N[C@H](c3ccc4c(c3)S(=O)(=O)CCC4)C(C)C)ncnc2[nH]1
15 | 95% and 103% | 37% and 20% | 109% and 111% | 14.4 min | 116 µL/min/mg | 15% | 27.4 min | 61 µL/min/mg | 115 µL/min/mg | 14.5 min | 96 µL/min/mg | 17.4 min | CC(C)[C@@H](Nc1ncnc2[nH]c(-c3cnn(CC(N)=O)c3)cc12)c1ccc2c(c1)S(=O)(=O)CCC2
16 | 98% | 16% | 95% | 19.5 min | 86 µL/min/mg | 23% | 14.8 min | 113 µL/min/mg | – | – | – | – | CNC(=O)c1c[nH]c2ncnc(N[C@@H](c3ccc4c(c3)NC(=O)CO4)C(C)C)c12
17 | 103% and 97% | 24% and 29% | 109% and 92% | – | – | – | 19 min | 88 µL/min/mg | – | – | 72 µL/min/mg | 23.2 min | CCNC(=O)c1cc2c(N[C@@H](c3ccc4c(c3)OCCO4)C(C)C)ncnc2[nH]1
18 | 95% | 1% | 98% | 9.9 min | 169 µL/min/mg | 7% | 6.5 min | 255 µL/min/mg | – | – | – | – | CC(C)[C@H](Nc1ncnc2[nH]c(-c3cnn(C)c3)cc12)c1ccc2c(c1)S(=O)(=O)CCC2
19 | 98% and 102% | 21% and 43% | 95% and 114% | – | – | 15% and 0% | 19.5 min | 85 µL/min/mg | – | – | 54 µL/min/mg | 30.8 min | CCNC(=O)c1cc2c(N[C@@H](c3ccc4c(c3)S(=O)(=O)CCC4)C(C)C)ncnc2[nH]1
20 | 95% | 66% | 99% | 26.2 min | 64 µL/min/mg | 33% | 65.5 min | 26 µL/min/mg | – | – | – | – | CCNC(=O)c1cc2c(N[C@@H](c3ccc4c(c3)S(=O)(=O)CCO4)C(C)C)ncnc2[nH]1
21 | 108% | 36% | 106% | 16.9 min | 99 µL/min/mg | 19% | 27.1 min | 62 µL/min/mg | – | – | – | – | CC(C)[C@@H](Nc1ncnc2[nH]c(-c3cnn(CCC(N)=O)c3)cc12)c1ccc2c(c1)OCCO2
22 | 94% and 96% | 71% and 57% | 103% and 99% | – | – | – | 84.4 min | 20 µL/min/mg | – | – | 33 µL/min/mg | 51.2 min | CNC(=O)c1cc2c(N[C@@H](c3ccc4c(c3)NC(=O)CO4)C(C)C)ncnc2[nH]1
23 | 100% | 47% | 94% | 24.8 min | 67 µL/min/mg | 32% | 34.6 min | 48 µL/min/mg | – | – | – | – | CCNC(=O)c1cc2c(N[C@H](c3ccc4c(c3)OCCO4)C(C)C)ncnc2[nH]1
24 | 98% | 51% | 96% | 25.1 min | 67 µL/min/mg | 33% | 41.8 min | 40 µL/min/mg | – | – | – | – | CNCc1cc(-c2cc3c(N[C@H](c4ccc5c(c4)S(=O)(=O)CCC5)C(C)C)ncnc3[nH]2)co1
25 | 93% | 49% | 95% | 35.9 min | 46 µL/min/mg | 47% | 40 min | 42 µL/min/mg | – | – | – | – | CNCc1cc(-c2cc3c(N[C@@H](c4ccc5c(c4)S(=O)(=O)NCC5)C(C)C)ncnc3[nH]2)co1
26 | 116% | 27% | 96% | 100 min | 17 µL/min/mg | 78% | 20.7 min | 81 µL/min/mg | – | – | – | – | CC(C)[C@H](Nc1ncnc2[nH]c(-c3cnn(C)c3C#N)cc12)c1ccc2c(n1)OCCO2
